Measurements from patent US9725432B2, “Pyrimidine derivatives for the treatment of bacterial diseases” (JANSSEN R&D IRELAND, priority 2012, dated 2017).
≈ marks a conversion by molar mass, not a printed value.

Legend:
Staphylococcus aureus = experiment: Antibacterial susceptibility testing: IC90 determination (broth microdilution, resazurin fluorescence); assay type: cell-based; conditions: 90% inhibitory concentration for bacterial growth, Mueller Hinton broth, 35° C., 16-20 hours, strain not given
Method: Preparation of Bacterial Suspensions for Susceptibility Testing
The following bacteria were used: Staphylococcus aureus ATCC 29213, methicillin-resistant Staphylococcus aureus (MRSA) ATCC 700788 and Escherichia coli ATCC 35218. The bacteria used in this study were grown overnight in flasks containing 100 ml Mueller-Hinton broth (Difco cat. nr. 0757-17) in sterile de-ionized water, with shaking, at 37° C. Stocks were store at −70° C. until use.
Bacteria were incubated on a tryptic soy agar plate containing 5% sheep blood (Becton Dickinson cat. nr. 254053) for 18-24 hours at 35° C. in aerobic conditions (first passage). For the second passage, fresh Mueller-Hinton broth is inoculated with 5-10 colonies and grown overnight at 35° C. until turbidity (reaching log-phase) in aerobic conditions is reached. The bacterial suspension is then adjusted to 0.5 McFarland density and further diluted 1:100 in Mueller Hinton broth medium. This is used as inoculum.
Antibacterial Susceptibility Testing: IC90 Determination
MIC assays were performed by the broth microdilution method in a 96-well format (flat-bottom microtitre plates) with a final volume of 0.1 ml Mueller Hinton broth containing two-fold serial dilutions of compounds and inoculated with 5×10^5 CFU/ml of bacteria (standard inoculum size according to CLSI guidelines). Inhibitors are typically varied over the range of 63 to 0.49 μM. The final DMSO concentration in the assay was 1.25% (maximum tolerable DMSO concentration=6%). In the assays where the effect of human serum on the activity of the compounds against S. aureus was tested, human serum was added at a final concentration of 10%. The plates were incubated at 35° C. for 16-20 hours. At the end of incubation the bacterial growth was quantified fluorometrically. For this, resazurin was added to all wells and the plates were re-incubated. The incubation time is dependent on the type of bacteria. A change in color from blue to pink indicated the growth of bacteria. The fluorescence was read in computer-controlled fluorometer (Fluoroskan Ascent FL, Labsystems) at an excitation wavelength 540 nm and an emission wavelength of 590 nm. The % growth inhibition achieved by the compounds was calculated according to standard methods. The IC90 (expressed in μg/ml) was defined as the 90% inhibitory concentration for bacterial growth. A panel of reference compounds were simultaneously tested for QC approval.

Cytotoxicity MTT assay = assay type: cell-based; conditions: human, HelaM cells, concentration that causes 50% reduction in cell viability
Method: Cytotoxicity of the compounds was evaluated using the MTT assay. Human HelaM cells grown in 96-well plates were exposed to serial dilutions of the tested compounds (final volume of 0.2 ml) and incubated for 72 hours at 37° C. and 5% CO2 Inhibitors are typically varied over the range of 25 to 0.8 μM. The final DMSO concentration in the assay is 0.5%. MTT (3-(4,5-Dimethylthiazol-2-yl)-2,5-diphenyltetrazolium bromide, a tetrazole) was added and reduced to purple formazan only in living cells. Solubilization of the formazan crystals was achieved by adding 100 μl 2-propanol. Cell viability was determined by measuring the absorbance of the reduced formazan, giving a purple color, at 540 nm and 690 nm. The absorbance measured at 690 nm was automatically subtracted from the absorbance at 540 nm, to eliminate the effects of non-specific absorption. The percent cytotoxicity achieved by the compounds was calculated according to standard methods. Cytotoxicity is reported as CC50, the concentration that causes a 50% reduction in cell viability.

Row | Compound | IC90 (Staphylococcus aureus) [µg/mL] | melting point [°C] | CC50 at 72 h (Cytotoxicity MTT assay) [µg/mL]
1 | COc1cccc(-c2cnc(-c3ccncc3)nc2C2CCN(Cc3sccc3C)CC2)c1 [Compound 1] | 8.5 (≈ 18.6 µM) |  | 
2 | C/C=C(\C)CN1CCC(c2nc(-c3ccncc3)ncc2-c2cccc(OC)c2)CC1 [Compound 2] | 13.7 (≈ 33.1 µM) |  | 
3 | COc1cccc(-c2cnc(-c3ccncc3)nc2C2CCN(Cc3cccc(F)c3)CC2)c1 [Compound 3] | 5.59 (≈ 12.3 µM) | 111 to 114 | > 4.5
4 | COc1cccc(-c2cnc(-c3ccncc3)nc2C2CCN(Cc3ccsc3)CC2)c1 [Compound 4] | 12.9 (≈ 29.2 µM) | 135 | > 11.1
5 | COc1cccc(-c2cnc(-c3ccncc3)nc2C2CCN(Cc3cc(Cl)ccc3O)CC2)c1 [Compound 5] | 2.1 (≈ 4.31 µM) | 227 to 228 | 6.3 (≈ 12.9 µM)
6 | COc1cccc(-c2cnc(-c3ccncc3)nc2C2CCN(CC(C)(C)C)CC2)c1 [Compound 6] | 1.05 (≈ 2.52 µM) | 118 | > 10.5
7 | Oc1ccccc1CN1CCC(c2nc(-c3cccnc3)ncc2-c2ccccc2)CC1 [Compound 7] | 14.3 (≈ 33.9 µM) |  | 
8 | Cc1cccc(-c2cnc(-c3ccncc3)nc2C2CCN(Cc3ccccc3O)CC2)c1 [Compound 8] | 5.5 (≈ 12.6 µM) | 149 to 151 | > 4.4
9 | COc1cccc(-c2cnc(-c3ccncc3)nc2C2CCN(Cc3ccc(Cl)cc3O)CC2)c1 [Compound 9] | 0.97 (≈ 1.99 µM) | 119 to 123 | 5.9 (≈ 12.1 µM)
10 | COc1cccc(-c2cnc(-c3ccncc3)nc2C2CCN(Cc3ccccc3O)CC2)c1 [Compound 10] | 1.68 (≈ 3.71 µM) | 142 to 146 | 9.9 (≈ 21.9 µM)
11 | COc1cccc(-c2cnc(-c3ccncc3)nc2C2CCN(CC(C)C)CC2)c1 [Compound 11] | 5.49 (≈ 13.6 µM) | 105 to 106 | > 10.1
12 | COc1cccc(-c2cnc(-c3ccncc3)nc2C2CCN(C3CC3)CC2)c1 [Compound 12] | 5.78 (≈ 15 µM) | 153 to 156 | > 9.7
13 | Cc1cccc(-c2cnc(-c3ccncc3)nc2C2CCN(Cc3cc(Cl)ccc3O)CC2)c1 [Compound 13] | 1.71 (≈ 3.63 µM) | 180 to 181 | 5.2 (≈ 11 µM)
14 | Cc1cccc(-c2cnc(-c3ccncc3)nc2C2CCN(Cc3cccc(F)c3)CC2)c1 [Compound 14] | 9.16 (≈ 20.9 µM) | 195 to 196 | > 11
15 | Cc1cccc(-c2cnc(-c3ccncc3)nc2C2CCN(CC(C)(C)C)CC2)c1 [Compound 15] | 1.49 (≈ 3.72 µM) | 123 to 127 | > 10.1
16 | COc1cccc(-c2cnc(-c3ccncc3)nc2C2CCN(Cc3ccccc3)CC2)c1 [Compound 16] | 6.92 (≈ 15.9 µM) | 174 | > 11
17 | COc1cccc(-c2cnc(-c3ccncc3)nc2C2CCN(CC3CCCCC3)CC2)c1 [Compound 17] | 13.4 (≈ 30.2 µM) | 130 | > 11.1
18 | COc1cccc(-c2cnc(-c3ccncc3)nc2C2CCN(Cc3ccco3)CC2)c1 [Compound 18] | 13 (≈ 30.5 µM) | 120 | > 10.7
19 | COc1cccc(-c2cnc(-c3ccncc3)nc2C2CCN(Cc3cccs3)CC2)c1 [Compound 19] | 5.57 (≈ 12.6 µM) | 130 | > 11.1

Row | Compound | IC90 (Staphylococcus aureus) [µg/mL] | melting point [°C] | CC50 at 72 h (Cytotoxicity MTT assay) [µg/mL]
20 | COc1cccc(-c2cnc(-c3ccncc3)nc2C2CCN(C(=O)C(C)Oc3ccccc3)CC2)c1 (stereo not shown) [Compound 20] | 7.15 (≈ 14.5 µM) |  | 8.1 (≈ 16.4 µM)
21 | COc1cccc(-c2cnc(-c3ccncc3)nc2N2CCN(CC(C)(C)C)CC2)c1 [Compound 21] | 0.39 (≈ 0.934 µM) | 117 to 120 | 5.9 (≈ 14.1 µM)
22 | COc1cccc(-c2cnc(-c3ccncc3)nc2N2CCC(NC(=O)C(C)Oc3ccccc3)CC2)c1 (stereo not shown) [Compound 22] | 5.16 (≈ 10.1 µM) | 106 to 108 | 8.5 (≈ 16.7 µM)
23 | COc1cccc(-c2cnc(-c3ccccn3)nc2C2CCN(Cc3cc(Cl)ccc3O)CC2)c1 [Compound 23] | 7.37 (≈ 15.1 µM) | 165 to 166 | 4.4 (≈ 9.03 µM)
24 | COc1cccc(-c2cnc(-c3cccnc3)nc2C2CCN(CC(C)(C)C)CC2)c1 [Compound 24] | 1.68 (≈ 4.03 µM) | 222 to 224 | > 11.4
25 | COc1cccc(-c2cnc(-c3ccncc3)nc2C2CCN(C(=O)C(C)(C)C)CC2)c1 [Compound 25] | 3.27 (≈ 7.59 µM) | 165 | > 10.8
26 | COc1cccc(-c2cnc(-c3ccncc3)nc2N2CCC(c3ccccc3)CC2)c1 [Compound 26] | 7.51 (≈ 17.8 µM) | 157 to 159 | 5.7 (≈ 13.5 µM)
27 | COc1cccc(-c2cnc(-c3cccnc3)nc2C2CCN(C(=O)C(C)Oc3ccccc3)CC2)c1 (stereo not shown) [Compound 27] | 9.1 (≈ 18.4 µM) | 138 to 140 | 7.1 (≈ 14.4 µM)
28 | COc1cccc(-c2cnc(-c3ccncc3)nc2C2CCN(Cc3cccc(C(F)(F)F)c3)CC2)c1 [Compound 28] | 5.28 (≈ 10.5 µM) | 156 | 4.7 (≈ 9.32 µM)
29 | COc1cccc(-c2cnc(-c3ccncc3)nc2C2CCN(Cc3ccc(F)cc3)CC2)c1 [Compound 29] | 3.45 (≈ 7.59 µM) | 152 | 8.5 (≈ 18.7 µM)
30 | COc1cccc(-c2cnc(-c3ccncc3)nc2NC2CCN(CC(C)(C)C)CC2)c1 [Compound 30] | 5.19 (≈ 12 µM) | 137 to 138 | 8.8 (≈ 20.4 µM)
31 | CN(C)c1ncc(-c2ccccc2F)c(C2CCN(CC(C)(C)C)CC2)n1 [Compound 51] | 13.4 (≈ 36.3 µM) |  | 7.8 (≈ 21.1 µM)
32 | CN(C)c1ncc(-c2cccc(Cl)c2)c(C2CCN(CC(C)(C)C)CC2)n1 [Compound 52] | 1.28 (≈ 3.31 µM) |  | 6.7 (≈ 17.3 µM)
33 | COc1ccc(-c2cnc(N(C)C)nc2C2CCN(CC(C)(C)C)CC2)cc1 [Compound 53] | 5.47 (≈ 14.3 µM) |  | 7.5 (≈ 19.6 µM)
34 | COc1cccc(-c2cnc(-c3ccncc3)nc2C2CCN(CC(F)(F)F)CC2)c1 [Compound 55] | 0.39 (≈ 0.91 µM) |  | 6.3 (≈ 14.7 µM)
35 | CC(C)(C)CN1CCCC(c2nc(-c3ccncc3)ncc2-c2cccc(C#N)c2)C1 (stereo not shown) [Compound 61] | > 25.9 |  | > 10.3
36 | COc1cccc(-c2cnc(-c3ccncc3)nc2C2CCN(CC(C)(F)F)CC2)c1 [Compound 70] | 0.64 (≈ 1.51 µM) |  | 6.7 (≈ 15.8 µM)
37 | COc1cccc(-c2cnc(-c3ccc(F)cc3)nc2C2CCN(CC(F)(F)F)CC2)c1 [Compound 71] | < 0.22 |  | 
38 | CC1(CN2CCC(c3nc(-c4ccncc4)ncc3-c3cccc(C#N)c3)CC2)COC1 [Compound 72] | 25.9 (≈ 61 µM) |  | 
